Blank lines part the entries; values can stand above or below the compound they belong to.
Assays:
[1] = biological target: recombinant human DHODH protein (Homo sapiens, UniProt Q02127); assay: In vitro DHODH enzyme inhibition assay; format: biochemical; conditions: in words
Lys-GFP-ER-HoxA9 cells [2] = assay: Myeloid differentiation assay in Lys-GFP-ER-HoxA9 cells (GFP / CD11b flow cytometry); conditions: for myeloid differentiation: ER-HoxA9 cellular differentiation assay, in words; for effect of uridine supplementation of the media on differentiation: uridine rescue, also U937 and THP1
Experimental: (See Example 20 for assay details.) After four days of compound treatment, cells were assessed by high-throughput flow cytometry for viability based on forward and side-scatter properties, and for differentiation as determined by the endogenous expression of GFP and cell-surface expression of CD11b (APC fluorescence, FIG. 2C).
The cell line used was ERHoxA9 myeloblast cell line. […] Removal of beta-estradiol from the culture media inactivates ERHoxA9 and the cells are freed from the HoxA9-differentiation arrest and undergo normal myeloid differentiation.
Cells were cultured in RPMI (Cellgro) supplemented with 10% fetal bovine serum (Serum Source Int'l), penicillin/streptomycin, L-glutamine (Omega Scientific), 5% conditioned media containing stem cell factor (SCF), and 0.5 μM beta-estradiol (Sigma). On day 1, 25 μL of complete media supplemented with 0.04% Pluronic F-68 (GIBCO) was added to a sterile 384 well culture plate (Greiner) followed by the addition of 0.2 μL of test compound in DMSO (Sigma). Wells contained complete media supplemented with Pluronic F-68 and the 5 μM of the estrogen receptor antagonist fulvestrant that served as a positive control for differentiation. 25 μL of cells (1.2×10^5/ml) in complete media were added and the plates were incubated (37° C./5% CO2) for 4 days. Final concentrations of components were 3,000 cells/well, 4 μM test compound, and 0.4% DMSO.
On day 5, plates were harvested as follows: 5 μL of an antibody/bead solution consisting of a 1:100 dilution of APC-conjugated anti-mouse CD11b (eBioscience, cloneM1/70) and a 1/500 dilution of polystyrene beads (Spherotech) were added to wells and the plates were incubated for 20 min prior to sampling using the HyperCyt® high throughput flow cytometry platform.
Cells were cultured in RPMI (Cellgro) supplemented with 10% fetal bovine serum (Serum Source Int'l), penicillin/streptomycin, L-glutamine (Omega Scientific), 5% conditioned media containing stem cell factor (SCF), and 0.5 μM beta-estradiol (Sigma, E2758). On day 1, 25 μL of complete media supplemented with 0.04% Pluronic F-68 (GIBCO) was added to a sterile 384 well culture plate (Greiner) followed by the addition of 0.2 μL of compound dilution arrays in DMSO. Some wells contained complete media supplemented with Pluronic F-68 and 5 μM of the estrogen receptor antagonist fulvestrant that served as a positive control for differentiation. 25 μL of cells (1.2×10^5/ml) in complete media were added and the plates were incubated (37° C./5% CO2) for 4 days. Final concentrations of components were 3,000 cells/well and 0.4% DMSO.

[3] = tested on: acute promyelocytic leukemia (APL); conditions: ATRA incorporated into treatment regimens; from 20%; cited from earlier work
U937 cells = assay: Differentiation (CD11b upregulation) in U937 human leukemia cell line; format: cell-based
Experimental: (§1) The THP-1 and U937 human leukemic cell lines were used within the same procedure as in the primary assay, except using human leukemic cell lines. These are factor-independent cell lines and estrogen-independent cell lines, such that cells were grown simply in RPMI supplemented with 10% fetal bovine serum.

THP1 cells [4] = assay: Differentiation (CD11b upregulation) in THP1 human leukemia cell line; format: cell-based
Experimental: as §1

Lys-GFP-ER-HoxA9 cells [5] = assay: Cellular metabolite analysis after DHODH inhibition in vitro; format: cell-based, murine; conditions: 48 hours treatment
Source text: DHODH catalyzes the conversion of dihydroorotate (DHO) to orotate in the endogenous synthesis of uridine monophosphate (UMP, FIG. 5A).

[6] = tested on: protein O-GlcNAc modification; assay: Immunoblot of protein O-GlcNAc modification; format: cell-based
Source text: FIG. 5E is an immunoblot.
DHODH and OMPD inhibitors lead to depletion of uridine and to myeloid differentiation in model systems. […] (See, Example 24.) Without intending to be bound by theory, part of the differentiation effect may be due to depletion of UDP-GlcNAc leading to decreased O-linked N-acetylglycosylation (GlcNAc) post-translational modification of proteins.

Solubility = format: physicochemical
Experimental: Solubility was determined in phosphate buffered saline (PBS) pH 7.4 with 1% DMSO. Each compound was prepared in duplicate at 100 μM in both 100% DMSO and PBS with 1% DMSO. Compounds were allowed to equilibrate at room temperature with a 250 rpm orbital shake for 24 hours. After equilibration, samples were analyzed by UPLC-MS (Waters, Milford, Mass.) with compounds detected by SIR detection on a single quadrupole mass spectrometer. The DMSO samples were used to create a two point calibration curve to which the response in PBS was fit.

Bioavailability = conditions: in vivo
[7] = biological target: panel of >400 known kinases; assay: DiscoverX KinomeScan kinase panel; format: binding
[8] = Brequinar plasma concentration after a single IP dose; conditions: mouse, FIG. 4E, read-out: half-life in vivo (converted)
Plasma protein binding = format: in vitro ADME; conditions: consistent with published literature
Experimental: Plasma protein binding was determined by equilibrium dialysis using the Rapid Equilibrium Dialysis (RED) device (Pierce Biotechnology, Rockford, Ill.) for both human and mouse plasma. Each compound was prepared in duplicate at 5 μM in plasma (0.95% acetonitrile, 0.05% DMSO) and added to one side of the membrane (200 μl) with PBS pH 7.4 added to the other side (350 μl). Compounds were incubated at 37° C. for 5 hours with a 250 rpm orbital shake. After incubation, samples were analyzed by UPLC-MS (Waters, Milford, Mass.) with compounds detected by SIR detection on a single quadrupole mass spectrometer.

THP1 cells [9] = assay: THP-1 subcutaneous xenograft model of AML; format: in vivo, SCID mice
Source text: THP1 cells were implanted subcutaneously into the flank of SCID mice, and allowed 10 days to engraft to tumor size of ˜40 mm^2.

[10] = tested on: HoxA9-Meis1 leukemia cells; assay: Syngeneic HoxA9 and Meis1-driven model of AML
Source text: To address the anti-leukemic and differentiation effect of DHODH inhibition in vivo, we chose a syngeneic retroviral transduction model of AML. In this model, bone marrow cells are transduced with MSCV-based retrovirus expressing both HoxA9 and Meis1 oncoproteins and introduced intravenously into recipient mice that have been pre-conditioned with a sub-lethal dose of radiation. Mice that developed acute myeloid leukemia were sacrificed and bone marrow cells were expanded in vitro in media supplemented with SCF and IL-3. To permit easy tracking in vivo, leukemic cells were transduced with lentivirus expressing the Venus fluorescent protein, and double-sorted by fluorescence activated cell sorting (FACS) to purity. These Venus-expressing cultured leukemic cells were re-transplanted into pre-conditioned secondary recipient mice, and these secondary recipients were used in all described experiments. […] Mice were treated at six dosages: (1) vehicle Q2D, (2) BRQ 5 mg/kg Q2D, (3) BRQ 10 mg/kg Q2D, (4) BRQ 25 mg/kg Q2D, (5) vehicle days 1+4 of a 7-day schedule or (6) BRQ 25 mg/kg days 1+4 of a 7-day schedule. Scheduled interim euthanasia and leukemia analyses were performed at two planned time points (FIG. 6A).

DHODH activity = assay: Plasma uridine and dihydroorotate (DHO) after brequinar dosing; format: in vivo, murine
Experimental: DHODH catalyzes the conversion of dihydroorotate (DHO) to orotate in the endogenous synthesis of uridine monophosphate. Inhibition of DHODH activity results in dihydroorotate accumulation and uridine depletion.
Plasma uridine levels were analyzed at various times thereafter (FIG. 8). […] Patient-specific dosing will be accomplished by adjusting the dose of DHODH inhibitor based on the patient's metabolism. This will involve adjusting the dosage based on the measurement of plasma DHO.

[11] = tested on: leukemia initiating cells; assay: Leukemia-initiating cell activity (transplant of FACS-purified leukemia cells into tertiary recipients); format: in vivo, mice
Source text: Leukemic cells isolated from the BRQ-treated mice were more differentiated on the basis of their CD11b and Gr-1 cell-surface expression (FIGS. 6C, 6D). To assess their morphology as well as their functional potential as leukemia initiating cells, live Venus-positive leukemic cells were freshly isolated from vehicle or BRQ-treated mice by fluorescence-activated cell sorting (FACS).
FACS-purified leukemia cells from vehicle or BRQ-treated mice were re-introduced into sub-lethally irradiated tertiary recipient mice. The experiment was performed twice: from mice that received BRQ 25 mg/kg every other day for 4 doses (FIG. 7B, left panel), and from mice that received BRQ day 1+4 of a 7-day cycle for a total of 6 doses (FIG. 7B, right panel).

wild-type C57B1/6 mice [12] = conditions: C57B1/6, mouse, in vivo, 6 days
organ rejection = conditions: in vivo; cited from earlier work
wild-type C57B1/6 mice [13] = assay: Maximum tolerated dose (MTD) evaluation; conditions: doses higher than 15 mg/kg, after 6 days of daily dosing; reversible
[14] = 5 mg/kg or 10 mg/kg every other day
[15] = 25 mg/kg day 1+4 of a 7-day schedule
[16] = 25 mg/kg day 1+4 of a 7-day schedule, 6 doses

Chain of recombinant human DHODH protein (Q02127 whole entry): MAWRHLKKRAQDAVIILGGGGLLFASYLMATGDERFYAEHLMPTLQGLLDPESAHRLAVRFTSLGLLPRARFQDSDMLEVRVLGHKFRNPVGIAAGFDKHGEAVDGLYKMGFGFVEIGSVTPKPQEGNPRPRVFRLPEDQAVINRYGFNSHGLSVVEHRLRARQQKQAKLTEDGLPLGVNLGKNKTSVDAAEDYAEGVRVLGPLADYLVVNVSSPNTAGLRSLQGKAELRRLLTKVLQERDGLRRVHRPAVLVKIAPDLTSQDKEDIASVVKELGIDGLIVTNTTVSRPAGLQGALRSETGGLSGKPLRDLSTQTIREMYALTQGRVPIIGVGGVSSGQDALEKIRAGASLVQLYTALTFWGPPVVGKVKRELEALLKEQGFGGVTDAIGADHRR

SMILES: O=C(CCNC(=O)c1ccc(Cl)cc1)N[C@@H]1CCCc2ccccc21 [(R)-C07]
DHODH enzyme inhibition [1]: inhibitors of DHODH
myeloid differentiation (Lys-GFP-ER-HoxA9 cells [2]): triggered myeloid differentiation
effect of uridine supplementation of the media on differentiation (Lys-GFP-ER-HoxA9 cells [2]): abrogated the differentiation effect

SMILES: CC1=C(/C=C/C(C)=C/C=C/C(C)=C/C(=O)O)C(C)(C)CCC1 [ATRA, all-trans retinoic acid]
overall survival of patients with APL [3]: 75%

DHODH enzyme inhibition [1]: inhibitors of DHODH
SMILES: O=C(O)c1cccnc1Nc1ccc(Cl)cc1 [Compound C03]
differentiation (upregulation of CD11b expression) (U937 cells): promoted differentiation
differentiation (upregulation of CD11b expression) (THP1 cells [4]): promoted differentiation
myeloid differentiation (Lys-GFP-ER-HoxA9 cells [2]): triggered myeloid differentiation
effect of uridine supplementation of the media on differentiation (Lys-GFP-ER-HoxA9 cells [2]): abrogated the differentiation effect

SMILES: O=C(CCNC(=O)c1ccc(OC(F)(F)F)cc1)N[C@@H]1CCCc2ccccc21 [ML390]
DHODH enzyme inhibition [1]: DHODH was confirmed as the target
accumulation of dihydroorotate (Lys-GFP-ER-HoxA9 cells [5]): > 500 fold
uridine and downstream metabolites (Lys-GFP-ER-HoxA9 cells [5]): depletion of uridine and other downstream metabolites
protein O-GlcNAc modification [6]: global reduction of protein O-GlcNAc modification
solubility (Solubility): low
bioavailability (Bioavailability): low
effect of uridine supplementation of the media on differentiation (Lys-GFP-ER-HoxA9 cells [2]): abrogated the differentiation effect

SMILES: Cc1c(-c2ccc(-c3ccccc3F)cc2)nc2ccc(F)cc2c1C(=O)O [brequinar sodium]
DHODH enzyme inhibition [1]: active
myeloid differentiation (Lys-GFP-ER-HoxA9 cells [2]): active

SMILES: Cc1c(-c2ccc(-c3ccccc3F)cc2)nc2ccc(F)cc2c1C(=O)O [brequinar, 6-fluoro-2-(2′-fluoro-[1,1′-biphenyl]-4-yl)-3-methyl-quinoline-4-carboxylic acid]
kinase inhibitory activity ([7]; 100 nM): near-complete absence of kinase inhibitory activity
kinase inhibitory activity ([7]; 1 μM): near-complete absence of kinase inhibitory activity
half-life [8]: ~12 h
protein-bound (Plasma protein binding): 98-99%
tumor growth (THP1 cells [9]; 5 mg/kg daily IP): arrested tumor growth
tumor growth (THP1 cells [9]; 15 mg/kg Q3D IP): slowed tumor growth
reduction in cellular uridine levels (THP1 cells [9]; THP1 cells isolated from treated mice vs vehicle): 90 % AUC
differentiation of explanted THP1 cells (CD11b expression) (THP1 cells [9]; tumors explanted after 10 days of treatment): marked differentiation
survival [10, 14]: prolongation of survival
tolerability [10, 14]: well tolerated without hematologic toxicity or weight loss
differentiation markers on leukemic cells ([10]; 25 mg/kg Q2D for four doses): upregulation of differentiation markers CD11b (Mac-1) and Gr-1 (Ly6C/G)
leukemic involvement of bone marrow, spleen and peripheral blood ([10]; 25 mg/kg Q2D for four doses): dramatic decrease in the leukemic involvement of their bone marrow, spleen, and peripheral blood
side effects ([10]; 25 mg/kg Q2D for four doses): weight loss, anemia, and thrombocytopenia
time off treatment until relapse with leukemia ([10]; 25 mg/kg day 1+4, discontinued after 14 doses (day 59)): approximately 4 weeks
survival [10, 15]: even more dramatic prolongation of survival
toxicity [10, 15]: without toxicity
leukemic involvement of bone marrow, spleen and peripheral blood [10, 16]: even more dramatic decrease in the leukemic involvement of their bone marrow, spleen, and peripheral blood
side effects [10, 16]: none of the side effects
cellular uridine, UDP and UDP-glycoconjugates ([10]; HoxA9-Meis1 leukemia cells from bone marrow of treated mice): significant reduction in cellular uridine
tolerability and efficacy ([10]; administered every 3-days, mouse model of AML): both effective against AML and well-tolerated
protein O-GlcNAc modification [6]: global reduction of protein O-GlcNAc modification
change in DHO levels, IP versus PO administration (DHODH activity; FIG. 11): similar
time until DHO levels undetectable again (DHODH activity; single 25 mg/kg dose): ≤ 72 h
time to rebound of plasma uridine (DHODH activity; single dose 25 mg/kg): about 48 hours
morphology of leukemic cells isolated from treated mice ([11]; Wright-Giemsa cytospin): morphologic granulocytic differentiation
leukemia development in recipients of leukemic cells from treated donors ([11]; donors: 25 mg/kg every other day 4 doses, or day 1+4 of 7-day cycle 6 doses, both cases): took longer to develop symptoms of leukemia
tolerated dose (wild-type C57B1/6 mice [12]): up to 15 mg/kg
prevention of organ rejection (organ rejection): effective in preventing organ rejection
toxicity (wild-type C57B1/6 mice [13]): weight loss and thrombocytopenia
increase in ED50 (Lys-GFP-ER-HoxA9 cells [2]; cells cultured in 50% FBS): ~2 fold
myeloid differentiation effect in vitro (Lys-GFP-ER-HoxA9 cells [2]; pulses that lasted fewer than 48-hours): almost no effect

SMILES: Nc1ccn([C@@H]2O[C@H](CO)[C@@H](O)[C@@H]2O)c(=O)n1 [cytarabine]
myeloid differentiation (Lys-GFP-ER-HoxA9 cells [2]): cytotoxicity without differentiation

SMILES: COc1cccc2c1C(=O)c1c(O)c3c(c(O)c1C2=O)C[C@@](O)(C(C)=O)C[C@@H]3O[C@H]1C[C@H](N)[C@H](O)[C@H](C)O1 [daunorubicin]
myeloid differentiation (Lys-GFP-ER-HoxA9 cells [2]): cytotoxicity without differentiation

SMILES: Cc1oncc1C(=O)Nc1ccc(C(F)(F)F)cc1 [leflunomide, 5-methyl-N-[4-(trifluoromethyl)phenyl]-isoxazole-4-carboxamide]
leukemic burden ([10]; 25 mg/kg daily): did not result in a reduction in leukemic burden
expression of the differentiation marker CD11b ([10]; 25 mg/kg daily (highest dosage)): very mild increase
myeloid differentiation (Lys-GFP-ER-HoxA9 cells [2]): active

SMILES: CN(Cc1cnc2nc(N)nc(N)c2n1)c1ccc(C(=O)N[C@@H](CCC(=O)O)C(=O)O)cc1 [methotrexate]
myeloid differentiation (Lys-GFP-ER-HoxA9 cells [2]): cytotoxicity without differentiation

SMILES: NC(=O)c1[nH]nc([C@@H]2O[C@H](CO)[C@@H](O)[C@H]2O)c1O [pyrazofurin]
myeloid differentiation (Lys-GFP-ER-HoxA9 cells [2]): phenocopied the differentiation effect of DHODH inhibition
effect of uridine supplementation of the media on differentiation (Lys-GFP-ER-HoxA9 cells [2]): abrogated the differentiation effect

DHODH enzyme inhibition [1]: active
SMILES: C/C(O)=C(\C#N)C(=O)Nc1ccc(C(F)(F)F)cc1 [teriflunomide, (2Z)-2-cyano-3-hydroxy-N-[4-(trifluoromethyl)phenyl]but-2-enamide]
myeloid differentiation (Lys-GFP-ER-HoxA9 cells [2]): active

Source: patent US11096934B2, “Compounds and methods useful for treating or preventing hematological cancers” (THE BROAD INSTITUTE, INC., priority 2015, dated 2021)
